Usually Ki stands for a dissociation constant, usually derived from enzyme kinetics or from competition with a known ligand. For orientation: LD50 means the dose at which mortality reaches 50%. By IC50 is commonly meant the midpoint of a concentration-inhibition curve.

Where two headings read alike, the source gives them in different places.

Series [1] has as its target T1, ATPase of sub-mitochondrial particles (mitochondrial F1Fo-ATPase) (Bos taurus, UniProt P13621).
T1 construct: from tissue; host or cells: sub-mitochondrial particles (SMPs)
Nature of the series: NADH-coupled ATP hydrolysis kinetics assay with sub-mitochondrial particles. To be noted: for mechanism of inhibition: ATP hydrolysis. It counts as biochemical, bovine. As for the experimental part: The mechanism of inhibition for ATP hydrolysis induced by Bz-423 and derivatives of Bz-423 was assayed using an NADH-coupled assay. The ATP hydrolytic activity of the sub-mitochondrial particles (hereinafter SMPs) was measured by coupling the production of ADP to the oxidation of NADH via the pyruvate kinase and lactate dehydrogenase reaction. Briefly, ATP hydrolysis SMPs (0.8 mg; 7.14 μg/well) were added to hydrolysis buffer (100 mM Tris-HCl, pH 8.0 at 25° C., 4 mM MgCl2, […], 0.2 mM EDTA) and vortexed. 125 μL of this suspension was added to each well of a 96-well plate containing 50× drug or DMSO vehicle control (1% DMSO, final). The 96-well plate was then placed at 30° C. in a Molecular Devices Versamax tunable microplate reader and allowed to incubate for 5 min. During this 5 min, a substrate-coupling mixture was prepared (containing X mM ATP, 0.2 mM NADH, 1 mM phosphoenolpyruvate (PEP), 2 U/mL pyruvate kinase (PK), and 2 U/mL lactate dehydrogenase (LDH) in hydrolysis buffer). The rate of hydrolysis was assayed over a range of ATP concentrations (0.1-4.0 mM) at each [Bz]. 125 μL of the substrate-coupling mixture was added to each well, and the rate of NADH oxidation was monitored for 10 min at 340 nm, 30° C. The measured decrease in absorbance over time (in OD/min) was converted to μmol ATP hydrolyzed/min/mg SMP (ε=6220). The velocity data was plotted versus [ATP] for each concentration of [Bz] […] To obtain Ki values and confirm that an uncompetitive model of inhibition was the best fit for the data, three-dimensional fits of the velocity, [ATP], and [Bz] were performed to solve for Vmax, Km, Ki, and Ki* [where Ki indicates Bz binding to the ATPase with the third catalytic site empty (mixed-type inhibition only), and Ki* indicates binding when all three sites have substrate bound (uncompetitive and mixed-type inhibition)]. The following equations were used: Competitive Inhibition: Vo=Vmax[S]/((1+[I]/Ki)Km+[S]) Uncompetitive Inhibition: Vo=Vmax[S]/((1+[I]/Ki*)[S]+Km) Mixed or Noncompetitive Inhibition: Vo=Vmax[S]/((1+[I]/Ki)Km+(1+[I]Ki*)[S])
The results for the o-tert-Butyl derivative of Bz-423 are shown in Table 1 and confirm that this derivative binds the ATPase with an uncompetitive binding mechanism, similar to Bz-423.

For another series, the system named is rodents. To be noted: two daily doses; cited from earlier work.
For a further series, the target named is F1Fo-ATPase (Homo sapiens, UniProt P05496). To be noted: cited from earlier work.
The mark [2] stands for this setting: Ki*, Uncompetitive Inhibition model fit, binding when all three sites have substrate bound.
Where [3] appears, read: Ki, Competitive Inhibition model fit.

Regarding `CN1C(=O)C(Cc2ccc3ccccc3c2)N=C(c2ccc(O)cc2)c2cc(Cl)ccc21` (centres unmarked) [Bz-423], in series [1], the mechanism of inhibition result is listed as “uncompetitive”. Besides, the Ki is 19 ± 5.8 µM in series [1] (setting [2]) and 13.32 ± 0.1 µM in series [1] (setting [3]).
For the molecule `CC[C@H]1/C=C/C=C/C[C@@H](C)[C@H](O)[C@@](C)(O)C(=O)[C@@H](C)[C@H](O)[C@@H](C)C(=O)[C@@H](C)[C@H](O)[C@@H](C)/C=C/C(=O)O[C@@H]2[C@H](C)[C@H](CC1)O[C@]1(CC[C@H](C)[C@H](C[C@@H](C)O)O1)[C@H]2C` [oligomycin], in the series with rodents, the LD50 was 0.5 mg/kg. The concentration for half-maximal inhibition (IC50) on F1Fo-ATPase is 10 nM.
For `CN1C(=O)C(Cc2ccc(OC(C)(C)C)cc2)N=C(c2ccc(O)cc2)c2cc(Cl)ccc21` (centres unmarked) [o-tert-Butyl], the mechanism of inhibition result in series [1] is given as “uncompetitive”. Also, the Ki in series [1] (setting [2]) came to 12.7 ± 1.1 µM; in series [1] (setting [3]) it was 9.35 ± 2.4 µM; in series [1] (Non-competitive Inhibition model fit, binding when all three sites have substrate bound, read-out: Ki*) it was 12.7 ± 1.1 µM. Further, the “effect on Km” value in series [1] (secondary plots of [Bz] versus Km) was “decreased”. In series [1] (secondary plots of [Bz] versus Vmax), the “effect on Vmax” value is given as “decreased”.
